Experimental data as given in BindingDB's records for doi:10.1038/nchembio.1629 (George Washington University, 2014).

Key:
[1] = target: T1, Mitogen-activated protein kinase 3 (Homo sapiens, UniProt P27361); test: ITC; conditions: pH 7.5; 15 °C
Procedure: (§1) For ERK1 and ERK2, the buffer contained 20 mM HEPES (pH 7.5), 150 mM NaCl and 0.5 mM TCEP. For haspin, the buffer contained 20 mM HEPES (pH 7.5), 250 mM NaCl and 0.5 mM TCEP. Titration was performed at 15 °C by injecting 100 µM protein into a reaction cell containing the inhibitors (7 µM).

[2] = target: T2, Serine/threonine-protein kinase haspin [465-798] (Homo sapiens, UniProt Q8TF76); test: ITC; conditions: pH 7.5; 15 °C
T2 construct: 465-798
T2 sequence (Q8TF76 whole entry): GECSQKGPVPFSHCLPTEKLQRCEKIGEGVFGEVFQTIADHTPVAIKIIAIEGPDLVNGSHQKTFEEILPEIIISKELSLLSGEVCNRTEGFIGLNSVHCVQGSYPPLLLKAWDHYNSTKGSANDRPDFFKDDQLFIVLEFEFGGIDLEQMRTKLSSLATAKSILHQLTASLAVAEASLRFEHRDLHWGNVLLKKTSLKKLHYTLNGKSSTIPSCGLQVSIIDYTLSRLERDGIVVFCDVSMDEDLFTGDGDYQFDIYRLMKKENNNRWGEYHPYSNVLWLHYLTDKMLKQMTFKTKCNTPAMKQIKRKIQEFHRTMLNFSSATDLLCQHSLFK
Procedure: as §1

[3] = target: T1, Mitogen-activated protein kinase 3; test: Selectivity screening
Procedure: (§2) The IC50 values of selected kinases were determined using either Z'LYTE, Adapta or LanthaScreen assays.

Aurora kinase C = target: T3, Aurora kinase C (Homo sapiens, UniProt Q9UQB9); test: Selectivity screening
T3 sequence (Q9UQB9 whole entry): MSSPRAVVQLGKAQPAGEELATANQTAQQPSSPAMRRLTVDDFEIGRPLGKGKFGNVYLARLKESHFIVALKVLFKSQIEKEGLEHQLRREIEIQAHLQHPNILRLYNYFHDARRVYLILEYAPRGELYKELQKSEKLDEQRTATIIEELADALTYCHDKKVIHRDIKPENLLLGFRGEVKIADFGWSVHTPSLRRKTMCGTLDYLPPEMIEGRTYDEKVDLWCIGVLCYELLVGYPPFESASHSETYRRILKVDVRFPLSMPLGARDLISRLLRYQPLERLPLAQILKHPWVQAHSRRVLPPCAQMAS
Procedure: as §2

[4] = target: T2, Serine/threonine-protein kinase haspin [465-798]; test: Selectivity screening
Procedure: as §2

[5] = target: Casein kinase II subunit alpha' (Homo sapiens, UniProt P19784); test: Selectivity screening
Casein kinase II subunit alpha', sequence (P19784 whole entry): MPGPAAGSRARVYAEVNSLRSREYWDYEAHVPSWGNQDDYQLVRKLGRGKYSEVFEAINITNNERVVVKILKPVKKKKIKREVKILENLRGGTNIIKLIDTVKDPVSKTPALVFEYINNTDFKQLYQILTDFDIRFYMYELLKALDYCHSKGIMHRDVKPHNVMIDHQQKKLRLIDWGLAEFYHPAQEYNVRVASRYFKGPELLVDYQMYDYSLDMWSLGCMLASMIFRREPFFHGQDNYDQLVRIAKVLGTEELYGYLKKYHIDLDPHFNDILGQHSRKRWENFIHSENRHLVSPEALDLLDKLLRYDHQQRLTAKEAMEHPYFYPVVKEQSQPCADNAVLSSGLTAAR
Procedure: as §2

[6] = target: Dual specificity protein kinase CLK2 (Homo sapiens, UniProt P49760); test: Selectivity screening
Dual specificity protein kinase CLK2, sequence (P49760 whole entry): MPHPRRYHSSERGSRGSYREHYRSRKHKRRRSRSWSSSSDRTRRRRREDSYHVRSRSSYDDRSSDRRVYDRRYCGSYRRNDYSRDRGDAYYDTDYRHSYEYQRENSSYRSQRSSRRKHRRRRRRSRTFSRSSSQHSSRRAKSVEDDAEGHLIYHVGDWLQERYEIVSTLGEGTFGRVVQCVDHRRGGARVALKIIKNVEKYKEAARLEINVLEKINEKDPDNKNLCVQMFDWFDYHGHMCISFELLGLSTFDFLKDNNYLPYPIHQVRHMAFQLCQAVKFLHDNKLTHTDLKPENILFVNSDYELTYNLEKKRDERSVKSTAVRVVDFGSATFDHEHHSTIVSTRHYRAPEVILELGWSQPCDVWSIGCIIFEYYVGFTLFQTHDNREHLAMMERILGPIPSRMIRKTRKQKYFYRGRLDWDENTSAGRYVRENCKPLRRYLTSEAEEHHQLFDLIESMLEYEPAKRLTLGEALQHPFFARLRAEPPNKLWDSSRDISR
Procedure: as §2

[7] = target: T4, Serine/threonine-protein kinase 17A (Homo sapiens, UniProt Q9UEE5); test: Selectivity screening
T4 sequence (Q9UEE5 whole entry): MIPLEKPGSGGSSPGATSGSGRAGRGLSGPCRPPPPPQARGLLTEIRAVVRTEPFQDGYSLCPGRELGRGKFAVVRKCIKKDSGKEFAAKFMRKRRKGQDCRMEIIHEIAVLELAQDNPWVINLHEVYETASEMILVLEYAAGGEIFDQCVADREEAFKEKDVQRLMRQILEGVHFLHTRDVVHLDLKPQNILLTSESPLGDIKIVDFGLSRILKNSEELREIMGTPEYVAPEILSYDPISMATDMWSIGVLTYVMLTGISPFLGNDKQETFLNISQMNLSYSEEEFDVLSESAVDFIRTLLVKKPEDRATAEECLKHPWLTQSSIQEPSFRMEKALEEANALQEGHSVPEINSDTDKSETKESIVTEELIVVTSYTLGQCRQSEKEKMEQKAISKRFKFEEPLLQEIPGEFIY
Procedure: as §2

[8] = target: Mitogen-activated protein kinase 10 (Homo sapiens, UniProt P53779); test: Selectivity screening
Mitogen-activated protein kinase 10, sequence (P53779 whole entry): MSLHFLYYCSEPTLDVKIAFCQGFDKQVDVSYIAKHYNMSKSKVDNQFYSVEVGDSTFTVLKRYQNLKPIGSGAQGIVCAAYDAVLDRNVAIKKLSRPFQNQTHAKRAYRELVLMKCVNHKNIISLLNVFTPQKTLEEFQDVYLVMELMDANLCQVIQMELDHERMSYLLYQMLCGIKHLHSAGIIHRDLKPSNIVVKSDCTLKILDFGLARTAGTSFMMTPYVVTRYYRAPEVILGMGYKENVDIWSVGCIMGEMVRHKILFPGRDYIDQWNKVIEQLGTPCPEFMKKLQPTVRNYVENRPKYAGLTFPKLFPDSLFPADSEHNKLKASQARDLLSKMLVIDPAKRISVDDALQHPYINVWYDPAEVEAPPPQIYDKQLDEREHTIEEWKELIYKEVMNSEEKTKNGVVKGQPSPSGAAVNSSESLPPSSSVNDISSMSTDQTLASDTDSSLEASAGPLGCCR
Procedure: as §2

[9] = target: Dual specificity protein kinase CLK1 (Homo sapiens, UniProt P49759); test: Selectivity screening
Dual specificity protein kinase CLK1, sequence (P49759 whole entry): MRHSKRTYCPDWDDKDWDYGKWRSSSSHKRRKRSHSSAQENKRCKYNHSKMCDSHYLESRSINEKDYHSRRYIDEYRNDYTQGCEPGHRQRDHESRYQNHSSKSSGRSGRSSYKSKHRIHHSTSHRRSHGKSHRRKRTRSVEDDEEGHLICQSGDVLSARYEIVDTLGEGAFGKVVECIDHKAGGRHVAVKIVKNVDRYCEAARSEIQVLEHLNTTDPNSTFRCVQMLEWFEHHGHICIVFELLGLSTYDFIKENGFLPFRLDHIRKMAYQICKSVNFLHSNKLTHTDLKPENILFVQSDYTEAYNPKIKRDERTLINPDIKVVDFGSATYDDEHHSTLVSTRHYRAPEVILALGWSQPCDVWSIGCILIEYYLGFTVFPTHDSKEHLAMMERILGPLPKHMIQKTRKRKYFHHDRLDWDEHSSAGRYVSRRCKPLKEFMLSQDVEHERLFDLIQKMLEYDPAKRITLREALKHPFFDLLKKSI
Procedure: as §2

Misshapen-like kinase 1 = Misshapen-like kinase 1 (Homo sapiens, UniProt Q8N4C8); test: Selectivity screening
Procedure: as §2

[10] = target: T5, Mitogen-activated protein kinase 8 [1-363] (Homo sapiens, UniProt P45983); test: Selectivity screening
T5 construct: 1-363
T5 sequence (P45983 1-363): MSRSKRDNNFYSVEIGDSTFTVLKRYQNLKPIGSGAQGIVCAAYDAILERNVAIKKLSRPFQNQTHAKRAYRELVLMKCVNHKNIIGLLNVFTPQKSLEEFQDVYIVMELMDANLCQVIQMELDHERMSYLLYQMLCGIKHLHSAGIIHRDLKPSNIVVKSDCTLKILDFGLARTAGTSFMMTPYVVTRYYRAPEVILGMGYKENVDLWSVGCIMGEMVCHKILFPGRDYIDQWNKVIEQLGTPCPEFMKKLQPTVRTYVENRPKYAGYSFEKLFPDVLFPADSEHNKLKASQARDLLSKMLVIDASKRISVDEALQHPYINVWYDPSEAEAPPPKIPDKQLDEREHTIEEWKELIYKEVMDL
Procedure: as §2

[11] = target: T6, Serine/threonine-protein kinase D1 (Homo sapiens, UniProt Q15139); test: Selectivity screening
T6 sequence (Q15139 whole entry): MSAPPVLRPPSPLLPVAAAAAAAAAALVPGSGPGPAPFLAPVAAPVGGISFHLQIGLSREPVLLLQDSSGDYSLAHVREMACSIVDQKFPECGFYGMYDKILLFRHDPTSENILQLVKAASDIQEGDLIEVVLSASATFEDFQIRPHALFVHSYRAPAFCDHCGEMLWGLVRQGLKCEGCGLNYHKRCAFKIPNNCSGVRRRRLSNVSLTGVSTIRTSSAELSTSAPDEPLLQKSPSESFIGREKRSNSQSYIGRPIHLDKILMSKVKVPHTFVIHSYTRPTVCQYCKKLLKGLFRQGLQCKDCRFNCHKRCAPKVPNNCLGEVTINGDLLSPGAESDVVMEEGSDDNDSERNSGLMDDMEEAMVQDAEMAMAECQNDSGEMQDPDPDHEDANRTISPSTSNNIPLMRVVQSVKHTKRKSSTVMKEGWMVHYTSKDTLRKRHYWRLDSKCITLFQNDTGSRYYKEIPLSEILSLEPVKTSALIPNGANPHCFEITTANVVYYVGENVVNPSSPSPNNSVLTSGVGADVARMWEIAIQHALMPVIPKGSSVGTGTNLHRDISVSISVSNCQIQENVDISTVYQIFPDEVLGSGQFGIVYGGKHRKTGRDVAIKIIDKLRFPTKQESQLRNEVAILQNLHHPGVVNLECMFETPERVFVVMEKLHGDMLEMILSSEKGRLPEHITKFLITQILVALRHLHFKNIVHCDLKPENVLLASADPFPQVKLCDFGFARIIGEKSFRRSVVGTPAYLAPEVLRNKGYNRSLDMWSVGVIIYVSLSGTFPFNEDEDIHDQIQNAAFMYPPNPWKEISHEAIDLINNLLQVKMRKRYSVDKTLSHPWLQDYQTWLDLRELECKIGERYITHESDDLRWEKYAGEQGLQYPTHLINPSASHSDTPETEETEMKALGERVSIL
Procedure: as §2

[12] = target: T7, Dual specificity mitogen-activated protein kinase kinase 3 (Homo sapiens, UniProt P46734); test: Selectivity screening
T7 sequence (P46734 whole entry): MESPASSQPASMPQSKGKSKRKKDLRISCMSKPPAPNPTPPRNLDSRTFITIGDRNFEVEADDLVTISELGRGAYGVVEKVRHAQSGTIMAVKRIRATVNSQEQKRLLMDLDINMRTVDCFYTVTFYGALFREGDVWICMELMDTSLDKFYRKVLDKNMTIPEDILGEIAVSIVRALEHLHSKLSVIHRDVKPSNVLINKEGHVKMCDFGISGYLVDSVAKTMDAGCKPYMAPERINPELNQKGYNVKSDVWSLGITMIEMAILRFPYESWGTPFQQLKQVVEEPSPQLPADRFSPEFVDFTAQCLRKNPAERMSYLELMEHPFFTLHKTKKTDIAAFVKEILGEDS
Procedure: as §2

[13] = target: Mitogen-activated protein kinase kinase kinase kinase 4 (Homo sapiens, UniProt O95819); test: Selectivity screening
Mitogen-activated protein kinase kinase kinase kinase 4, sequence (O95819 whole entry): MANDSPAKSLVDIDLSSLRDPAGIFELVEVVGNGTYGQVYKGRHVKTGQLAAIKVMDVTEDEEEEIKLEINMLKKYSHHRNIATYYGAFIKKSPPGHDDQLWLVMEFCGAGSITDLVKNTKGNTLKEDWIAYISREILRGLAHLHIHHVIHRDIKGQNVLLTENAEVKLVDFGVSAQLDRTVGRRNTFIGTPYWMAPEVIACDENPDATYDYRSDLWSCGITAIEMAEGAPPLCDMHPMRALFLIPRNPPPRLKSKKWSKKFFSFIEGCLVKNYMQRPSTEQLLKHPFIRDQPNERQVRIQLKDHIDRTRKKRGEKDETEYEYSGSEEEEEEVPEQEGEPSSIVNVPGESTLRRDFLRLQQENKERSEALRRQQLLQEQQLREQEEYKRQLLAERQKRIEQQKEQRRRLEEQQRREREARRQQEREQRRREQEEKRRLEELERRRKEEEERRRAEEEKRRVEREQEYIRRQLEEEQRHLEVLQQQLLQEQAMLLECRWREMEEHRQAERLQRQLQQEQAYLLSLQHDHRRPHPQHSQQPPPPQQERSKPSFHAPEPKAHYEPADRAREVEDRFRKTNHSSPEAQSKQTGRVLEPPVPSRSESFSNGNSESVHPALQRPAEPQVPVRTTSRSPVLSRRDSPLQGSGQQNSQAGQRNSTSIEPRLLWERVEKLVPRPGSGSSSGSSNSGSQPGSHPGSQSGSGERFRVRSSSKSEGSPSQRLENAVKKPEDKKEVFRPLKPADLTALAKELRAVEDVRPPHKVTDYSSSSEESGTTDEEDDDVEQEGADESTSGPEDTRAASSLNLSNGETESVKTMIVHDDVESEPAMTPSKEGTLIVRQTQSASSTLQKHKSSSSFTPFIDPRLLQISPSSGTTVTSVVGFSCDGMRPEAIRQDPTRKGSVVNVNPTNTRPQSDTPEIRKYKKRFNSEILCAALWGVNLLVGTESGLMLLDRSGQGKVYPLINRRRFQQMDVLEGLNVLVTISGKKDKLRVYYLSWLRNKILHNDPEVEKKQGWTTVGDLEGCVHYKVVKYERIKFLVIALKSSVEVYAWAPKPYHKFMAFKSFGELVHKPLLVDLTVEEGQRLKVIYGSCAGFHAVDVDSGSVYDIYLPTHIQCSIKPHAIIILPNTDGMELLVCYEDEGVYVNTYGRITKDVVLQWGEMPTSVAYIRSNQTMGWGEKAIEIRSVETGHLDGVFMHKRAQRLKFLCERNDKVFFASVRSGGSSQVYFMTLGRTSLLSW
Procedure: as §2

[14] = target: Mitogen-activated protein kinase 9 (Homo sapiens, UniProt P45984); test: Selectivity screening
Mitogen-activated protein kinase 9, sequence (P45984 whole entry): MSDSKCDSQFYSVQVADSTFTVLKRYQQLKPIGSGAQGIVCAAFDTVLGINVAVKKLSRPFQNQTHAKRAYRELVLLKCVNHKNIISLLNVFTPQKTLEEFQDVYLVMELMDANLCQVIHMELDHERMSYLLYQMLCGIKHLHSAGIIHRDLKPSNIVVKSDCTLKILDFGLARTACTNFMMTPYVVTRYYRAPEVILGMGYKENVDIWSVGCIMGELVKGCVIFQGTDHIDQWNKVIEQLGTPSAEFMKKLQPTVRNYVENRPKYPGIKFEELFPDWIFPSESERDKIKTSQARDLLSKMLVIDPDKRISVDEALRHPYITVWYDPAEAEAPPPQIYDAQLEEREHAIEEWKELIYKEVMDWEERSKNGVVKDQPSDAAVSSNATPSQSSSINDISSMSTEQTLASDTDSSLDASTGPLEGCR
Procedure: as §2

[15] = target: T8, Dual specificity protein kinase TTK (Homo sapiens, UniProt P33981); test: Selectivity screening
T8 sequence (P33981 whole entry): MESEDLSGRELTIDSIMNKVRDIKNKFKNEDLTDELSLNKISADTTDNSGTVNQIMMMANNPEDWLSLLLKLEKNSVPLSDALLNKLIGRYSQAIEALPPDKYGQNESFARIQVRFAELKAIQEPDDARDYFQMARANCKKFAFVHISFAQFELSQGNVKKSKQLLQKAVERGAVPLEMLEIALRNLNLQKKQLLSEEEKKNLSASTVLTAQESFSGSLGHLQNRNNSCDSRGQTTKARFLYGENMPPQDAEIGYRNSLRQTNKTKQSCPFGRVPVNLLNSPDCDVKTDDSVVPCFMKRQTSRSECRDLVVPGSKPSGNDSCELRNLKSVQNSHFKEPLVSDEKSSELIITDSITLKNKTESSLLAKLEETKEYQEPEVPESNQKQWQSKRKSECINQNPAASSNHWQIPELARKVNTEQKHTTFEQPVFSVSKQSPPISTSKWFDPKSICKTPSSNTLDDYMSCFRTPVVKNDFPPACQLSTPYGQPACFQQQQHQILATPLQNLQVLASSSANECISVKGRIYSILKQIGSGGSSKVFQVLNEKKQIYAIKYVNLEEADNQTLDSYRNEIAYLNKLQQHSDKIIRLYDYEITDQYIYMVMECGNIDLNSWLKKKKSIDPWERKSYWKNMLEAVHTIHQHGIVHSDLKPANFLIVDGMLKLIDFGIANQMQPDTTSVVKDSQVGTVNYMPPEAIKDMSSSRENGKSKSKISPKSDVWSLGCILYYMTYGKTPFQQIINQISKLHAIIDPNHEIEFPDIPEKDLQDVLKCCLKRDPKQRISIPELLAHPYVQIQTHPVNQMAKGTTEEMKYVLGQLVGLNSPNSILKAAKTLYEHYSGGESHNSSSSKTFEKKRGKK
Procedure: as §2

T1 sequence (P27361 whole entry): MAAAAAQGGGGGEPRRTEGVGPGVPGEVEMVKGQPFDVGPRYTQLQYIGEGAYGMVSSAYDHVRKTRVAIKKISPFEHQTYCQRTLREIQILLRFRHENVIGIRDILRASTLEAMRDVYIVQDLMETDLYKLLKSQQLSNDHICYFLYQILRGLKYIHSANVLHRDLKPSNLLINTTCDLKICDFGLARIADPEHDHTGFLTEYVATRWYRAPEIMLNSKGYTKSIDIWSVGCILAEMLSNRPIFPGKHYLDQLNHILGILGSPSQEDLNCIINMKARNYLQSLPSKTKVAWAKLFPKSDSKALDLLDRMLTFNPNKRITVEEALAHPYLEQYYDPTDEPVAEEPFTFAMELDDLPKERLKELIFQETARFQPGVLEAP

O=C(Nc1ccc2[nH]nc(-c3ccncc3)c2c1)[C@H]1CCN(CC(=O)N2CCN(c3ccc(-c4ncccn4)cc3)CC2)C1 [SCH772984]
Kd [1]: 213 nM
Kd [2]: 297 nM
IC50 [3]: 8.3 nM
IC50 (Aurora kinase C): 580 nM
IC50 [4]: 398 nM
IC50 [5]: > 10000 nM
IC50 [6]: 104 nM
IC50 [7]: 114 nM
IC50 [8]: 632 nM
IC50 [9]: 508 nM
IC50 (Misshapen-like kinase 1): 942 nM
IC50 [10]: 1080 nM
IC50 [11]: 535 nM
IC50 [12]: 304 nM
IC50 [13]: 503 nM
IC50 [14]: 783 nM
IC50 [15]: 193 nM
